Measured values from US10414774B2, “Compound useful for altering the levels of bile acids for the treatment of diabetes and cardiometabolc disease” (Merck Sharp & Dohme Corp., priority 2016, dated 2019).
pIC50: −log10 of the molar value.

Molecular target: T1, Human CYP8B1 (Homo sapiens, UniProt Q9UNU6)
T1 sequence (Q9UNU6 1-501): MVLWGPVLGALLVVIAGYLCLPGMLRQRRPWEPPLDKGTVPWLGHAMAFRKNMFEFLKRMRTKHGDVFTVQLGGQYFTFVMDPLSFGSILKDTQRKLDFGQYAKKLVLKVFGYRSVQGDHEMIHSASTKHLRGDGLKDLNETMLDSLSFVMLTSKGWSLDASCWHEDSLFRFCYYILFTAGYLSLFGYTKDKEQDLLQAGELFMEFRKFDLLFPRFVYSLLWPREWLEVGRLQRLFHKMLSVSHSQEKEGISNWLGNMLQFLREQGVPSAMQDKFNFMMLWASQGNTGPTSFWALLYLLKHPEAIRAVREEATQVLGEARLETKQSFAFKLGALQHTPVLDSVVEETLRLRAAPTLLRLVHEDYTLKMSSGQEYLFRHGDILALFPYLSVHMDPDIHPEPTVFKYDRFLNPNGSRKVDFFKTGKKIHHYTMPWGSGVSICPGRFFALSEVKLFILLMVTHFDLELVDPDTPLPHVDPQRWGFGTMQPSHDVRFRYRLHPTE
Assay: Human CYP8B1 Liver Microsome Assay
Settings: Human CYP8B1 IC50, human liver microsomes; substrate 7a-hydroxy-4-cholesten-3-one, NADPH; RapidFire MS detection of 7α,12α-dihydroxy-4-cholesten-3-one

Structure (SMILES) | pIC50
N#Cc1cnc2ccc(Cl)cc2c1C1CCC(C(=O)N2CCn3c(nnc3C(F)(F)F)C2)CC1 (mixture of isomers) [Example 124, 6-chloro-4-(4-{[3-(trifluoromethyl)-5,6-dihydro[1,2,4]triazolo[4,3-a]pyrazin-7(8H)-yl]carbonyl}cyclohexyl)quinoline-3-carbonitrile] | 6.96
C[C@@H]1CN(c2c(C#N)c(CO)nc3ccc(Cl)cc23)CC[C@@H]1C(=O)N1CCn2c(nnc2C(F)(F)F)C1 [Example 61, 6-chloro-2-(hydroxymethyl)-4-[(3S,4S)-3-methyl-4-{[3-(trifluoromethyl)-5,6-dihydro[1,2,4]triazolo[4,3-a]pyrazin-7(8H)-yl]carbonyl}piperidin-1-yl]quinoline-3-carbonitrile] | 8.35
C[C@@H]1CN(c2c(C#N)cnc3cc(OC(F)F)ccc23)CC[C@@H]1C(=O)N1CCn2c(nnc2C(F)(F)F)C1 [Example 62, 7-(difluoromethoxy)-4-[(3S,4S)-3-methyl-4-{[3-(trifluoromethyl)-5,6-dihydro[1,2,4]triazolo[4,3-a]pyrazin-7(8H)-yl]carbonyl}piperidin-1-yl]quinoline-3-carbonitrile] | 8.96
C[C@@H]1CN(c2c(C#N)cnc3cc(C4CC4)ccc23)CC[C@@H]1C(=O)N1CCn2c(nnc2C(F)(F)F)C1 [Example 63] | 8.96
Cc1nc2ccc(Cl)cc2c(N2CC[C@H](C(=O)N3CCn4c(nnc4C(F)(F)F)C3)[C@H](C)C2)c1C#N [Example 122, 6-chloro-2-methyl-4-((3S,4S)-3-methyl-4-(3-(trifluoromethyl)-5,6,7,8-tetrahydro-[1,2,4]triazolo[4,3-a]pyrazine-7-carbonyl)piperidin-1-yl)quinoline-3-carbonitrile] | 9.30
CCOc1ccc2c(N3CC[C@H](C(=O)N4CCn5c(nnc5C(F)(F)F)C4)[C@H](C)C3)c(C#N)cnc2c1 [Example 39, 7-ethoxy-4-[(3S,4S)-3-methyl-4-{[3-(trifluoromethyl)-5,6-dihydro[1,2,4]triazolo[4,3-a]pyrazin-7(8H)-yl]carbonyl}piperidin-1-yl]quinoline-3-carbonitrile] | 9.15
CC[C@H]1CN(c2c(C#N)cnc3ccc(Cl)cc23)CC[C@H]1C(=O)N1CCn2c(nnc2C(F)(F)F)C1 [Example 75a, 6-chloro-4-[(3R,4R)-3-ethyl-4-{[3-(trifluoromethyl)-5,6-dihydro[1,2,4]triazolo[4,3-a]pyrazin-7(8H)-yl]carbonyl}piperidin-1-yl]quinoline-3-carbonitrile] | 6.51
N#Cc1cnc2ccc(Cl)cc2c1N1CCC(C(=O)N2CCc3c(C(F)(F)F)n[nH]c3C2)CC1 [Example 111, 6-chloro-4-(4-{[3-(trfluoromethyl)-1,4,5,7-tetrahydro-6H-pyrazolo[3,4-c]pyridin-6-yl]carbonyl}piperidin-1-yl)quinoline-3-carbonitrile] | 7.05
[2H]C([2H])([2H])Oc1ccc2c(N3CC[C@H](C(=O)N4CCn5c(nnc5C(F)(F)F)C4)[C@H](C)C3)c(C#N)cnc2c1 [Example 80, 7-[(^2H3)methyloxy]-4-[(3S,4S)-3-methyl-4-{[3-(trifluoromethyl)-5,6-dihydro[1,2,4]triazolo[4,3-a]pyrazin-7(8H)-yl]carbonyl}piperidin-1-yl]quinoline-3-carbonitrile] | 9.46
CC(C)c1ncc2n1CCN(C(=O)C1CCN(c3c(C#N)cnc4ccc(Cl)cc34)CC1)C2 [Example 115, 6-chloro-4-(4-{[3-(propan-2-yl)-5,6-dihydroimidazo[1,5-a]pyrazin-7(8H)-yl]carbonyl}piperidin-1-yl)quinoline-3-carbonitrile] | 5.78
CO[C@@H]1CN(c2c(C#N)cnc3ccc(Cl)cc23)CC[C@@H]1C(=O)N1CCn2c(nnc2C(F)(F)F)C1 [Example 72a, 6-chloro-4-[(3S,4S)-3-methoxy-4-{[3-(trifluoromethyl)-5,6-dihydro[1,2,4]triazolo[4,3-a]pyrazin-7(8H)-yl]carbonyl}piperidin-1-yl]quinoline-3-carbonitrile] | 7.66
N#Cc1cnc2ccc(Cl)cc2c1N1CC[C@H](C(=O)N2CCn3c(nnc3C(F)(F)F)C2)[C@H](C2CC2)C1 [Example 76c, 6-chloro-4-[(3S,4S)-3-cyclopropyl-4-{[3-(trifluoromethyl)-5,6-dihydro[1,2,4]triazolo[4,3-a]pyrazin-7(8H)-yl]carbonyl}piperidin-1-yl]quinoline-3-carbonitrile] | 9.54
Cc1nc2cc(F)c(F)cc2c(N2CCC(C(=O)N3CCn4c(nnc4C(F)(F)F)C3)CC2)c1C#N [Example 50, 6,7-difluoro-2-methyl-4-(4-(3-(trifluoromethyl)-5,6,7,8-tetrahydro-[1,2,4]triazolo[4,3-a]pyrazine-7-carbonyl)piperidin-1-yl)quinoline-3-carbonitrile] | 5.65
C[C@@H]1CN(c2c(C#N)cnc3ccc(Cl)cc23)CC[C@@H]1C(=O)N1CCn2c(nnc2C(F)(F)F)C1 (single isomer, unassigned) [Example 116a] | 9.40
CO[C@@H]1CN(c2c(C#N)cnc3ccc(Cl)cc23)CC[C@H]1C(=O)N1CCn2c(nnc2C(F)(F)F)C1 [Example 72b, 6-chloro-4-[(3S,4R)-3-methoxy-4-{[3-(trifluoromethyl)-5,6-dihydro[1,2,4]triazolo[4,3-a]pyrazin-7(8H)-yl]carbonyl}piperidin-1-yl]quinoline-3-carbonitrile] | 6.36
CC1(C)CN(C(=O)C2CCN(c3c(C#N)cnc4ccc(Cl)cc34)CC2)Cc2nnc(C(F)(F)F)n21 [Example 109, 6-chloro-4-(4-{[5,5-dimethyl-3-(trifluoromethyl)-5,6-dihydro[1,2,4]triazolo[4,3-a]pyrazin-7(8H)-yl]carbonyl}piperidin-1-yl)quinoline-3-carbonitrile] | 6.43
C[C@@H]1CN(c2c(C#N)cnc3c(F)cc(C(F)F)cc23)CC[C@@H]1C(=O)N1CCn2c(nnc2C(F)(F)F)C1 [Example 88, 6-(difluoromethyl)-8-fluoro-4-((3S,4S)-3-methyl-4-(3-(trifluoromethyl)-5,6,7,8-tetrahydro-[1,2,4]triazolo[4,3-a]pyrazine-7-carbonyl)piperidin-1-yl)quinoline-3-carbonitrile] | 9.15
Cc1nc2ccc(Cl)cc2c(N2CC[C@H](C(=O)N3CCc4c(n[nH]c4C(F)(F)F)C3)[C@H](C)C2)c1C#N [Example 93, 6-chloro-2-methyl-4-[(3S,4S)-3-methyl-4-{[3-(trifluoromethyl)-2,4,5,7-tetrahydro-6H-pyrazolo[3,4-c]pyridin-6-yl]carbonyl}piperidin-1-yl]quinoline-3-carbonitrile] | 7.55
C[C@@H]1CN(c2c(C#N)cnc3c(F)c(C(F)(F)F)ccc23)CC[C@@H]1C(=O)N1CCn2c(nnc2C(F)(F)F)C1 [Example 17, 8-fluoro-4-[(3S,4S)-3-methyl-4-{[3-(trifluoromethyl)-5,6-dihydro[1,2,4]triazolo[4,3-a]pyrazin-7(8H)-yl]carbonyl}piperidin-1-yl]-7-(trifluoromethyl)quinoline-3-carbonitrile] | 9.44
COC(=O)c1ccc2nc(C(=O)OC)c(C#N)c(N3CC[C@H](C(=O)N4CCn5c(nnc5C(F)(F)F)C4)[C@H](C)C3)c2c1 [Example 60, dimethyl 3-cyano-4-[(3S,4S)-3-methyl-4-{[3-(trifluoromethyl)-5,6-dihydro[1,2,4]triazolo[4,3-a]pyrazin-7(8H)-yl]carbonyl}piperidin-1-yl]quinoline-2,6-dicarboxylate] | 6.57
